# Results: patent US20230391779A1, “BICYCLIC COMPOUNDS, COMPOSITIONS AND USE THEREOF” (Betta Pharmaceuticals Co., Ltd., priority 2020, published 2023)
# Test system: TEAD-YAP/TAZ interaction
# Experiment: CTGF ELISA assay
# Assay type: cell-based, human
# Settings: CTGF in culture supernatant of NCI-H2052 cells, 24 hours with compound
# Experimental: The detection of CTGF expression level can assessed the binding activity of TEAD-YAP/TAZ transcription factor, and the CTGF expression level was quantified by SimpleStep ELISA® kit (Abcam, ab261851).
# NCI-H2052 cells (Purchased from ATCC) were cultured in RPMI 1640 medium, adding 10% FBS and 1% Penicillin-Streptomycin Solution and 1 mM Sodium pyruvate. The day before compounds treatment, the cultured cells were washed with PBS and digested with trypsin, then centrifuged and collected. Discarded the supernatant, the cells were resuspended in fresh complete medium. After cells counted, cells were seeded at 6500 cells/well in 96-well plates. And then cells were cultured overnight in incubator (37° C., 5% CO2).
# After the cells were cultured overnight, discarded the culture supernatant, then washed with PBS solution, cells were incubated with 200 μl medium containing compounds in each well. The starting concentration was 10 μM and serial dilution in DMSO and medium were performed to achieve a final DMSO concentration of 0.5% (Final compounds concentration were 10000, 2500, 625, 156, 39.1, 9.77, 2.44, 0.61 nM, 0 nM (0.5% DMSO), The cells were then cultured in incubator (37° C., 5% CO2). Cultured for 24 hours, the cells were centrifuged at 1500 RPM at 4° C. for 5 minutes, and then 50 μl of culture supernatant were tested for CTGF ELISA assay.
# The Human CTGF SimpleStep ELISA® Kit (Abcam, ab261851) employs an affinity tag labeled capture antibody and a reporter conjugated detector antibody which immunocapture the sample analyte in solution. This entire complex (capture antibody/analyte/detector antibody) is in turn immobilized via immunoaffinity of an anti-tag antibody coating the well. To perform the assay, samples or standards are added to the wells, followed by the antibody mix (capture antibody/detector antibody). After incubation, the wells are washed to remove unbound material. TMB Development Solution is added and during incubation is catalyzed by HRP, generating blue coloration. This reaction is then stopped by addition of Stop Solution completing any color change from blue to yellow. Signal is generated proportionally to the amount of bound analyte and the intensity is measured at 450 nm. Firstly, prepare all reagents, samples, and standards as instructed. Add 50 μl standard or sample to appropriate wells. Then add 50 μl of the Antibody Cocktail to each well. Seal the plate and incubate for 1 hour at room temperature on a plate shaker. Wash each well with Wash Buffer three times. Add 100 μl of TMB Development Solution to each well and incubate for 10 minutes in the dark on a plate shaker. Add 100 μl of Stop Solution to each well. Shake plate on a plate shaker for 1 minute to mix. Record the OD at 450 nm. Determine the concentration of the target protein in the sample by the standard curve.
# EC50 value was determined by fitting the concentration response curves using GraphPad Prism software. The compounds of the present invention were tested for their capacity to inhibit TEAD-YAP/TAZ interaction according to the fitted curves of CTGF concentration response to compounds.
row,SMILES,EC50
1,"C=CC(=O)N1CC(n2nc(-c3ccc(C(F)(F)F)cc3)c3cccc(NC(C)=O)c32)C1 [Compound 15, N-(1-(1-acryloylazetidin-3 yl)-3-(4-(trifluoromethyl)phenyl)-1H-indazol-7-yl)acetamide]",0.035 µM
2,"C=C(F)C(=O)N1CC(n2nc(-c3cnc(C(F)(F)F)c(F)c3)c3cccnc32)C1 [Compound 184, 2-fluoro-1-(3-(3-(5-fluoro-6-(trifluoromethyl)pyridin-3-yl)-1H-pyrazolo[3,4-b]pyridin-1-yl)-azetidin-1-yl)prop-2-en-1-one]",0.00769 µM
3,"C=CC(=O)N1CC(n2nc(-c3ccc(C4CC4)cc3)c3ncccc32)C1 [Compound 120, 1-(3-(3-(4-cyclopropylphenyl)-1H-pyrazolo[4,3-b]pyridin-1-yl)-azetidin-1-yl)prop-2-en-1-one]",0.036 µM
4,"C=C(F)C(=O)N1CC(n2c(=O)n(-c3ccc(C(F)(F)F)cc3)c3cccnc32)C1 [Compound 230, 3-(1-(2 fluoroacryloyl)azetidin-3 yl)-1-(4-(trifluoromethyl)phenyl)-1,3-dihydro-2H-imidazo[4,5-b]pyridin-2-one]",0.0064 µM
5,"C=C(F)C(=O)N1CC(n2nc(-c3ccc(C(F)(F)F)cc3)c3ncc(OC)nc32)C1 [Compound 223, 2-fluoro-1-(3-(6-methoxy-3-(4-(trifluoromethyl)phenyl)-1H-pyrazolo[3,4-b]pyrazin-1-yl)-azetidin-1-yl)prop-2-en-1-one]",0.0006 µM
6,"C=C(F)C(=O)N1CC(n2nc(-c3ccc(C(F)(F)F)cc3)c3c2CCOC3)C1 [Compound 208, 2-fluoro-1-(3-(3-(4-(trifluoro-methyl)phenyl)-6,7-dihydro-pyrano-[4,3-c]pyrazol-1(4H)-yl)-azetidin-1-yl)prop-2-en-1-one]",0.0041 µM
7,"C=C(F)C(=O)NCC(C(=O)O)n1nc(-c2ccc(C(F)(F)F)cc2)c2cccnc21 (stereo not shown) [Com. EX.2, 3-(2-fluoroacrylamido)-2-(3-(4-(trifluoromethyl)phenyl)-1H-pyrazolo[3,4-b]pyridin-1-yl)propanoic acid, reference compound]",> 10 µM
8,"C=C(F)C(=O)NCC(C=O)n1nc(-c2ccc(C(F)(F)F)cc2)c2cccnc21 (stereo not shown) [Com. EX.1, 2-fluoro-N-(3-oxo-2-(3-(4-(trifluoromethyl)phenyl)-1H-pyrazolo[3,4-b]pyridin-1-yl)propyl)acrylamide, reference compound]",> 10 µM
9,"C=CC(=O)N1CCC(n2nc(-c3ccc(C(F)(F)F)cc3)c3ccc(F)cc32)C1 (stereo not shown) [Compound 50, 1-(3-(6-fluoro-3-(4-(trifluoro-methyl)phenyl)-1H-indazol-1-yl)-pyrrolidin-1-yl)prop-2-en-1-one]",0.023 µM
10,"C=CC(=O)N1CCC(n2nc(-c3ccc(C(F)(F)F)cc3)c3cccc(C#N)c32)C1 (stereo not shown) [Compound 48, 1-(1-acryloylpyrrolidin-3-yl)-3-(4-(trifluoromethyl)phenyl)-1H-indazole-7-carbonitrile]",0.015 µM
11,"C=C(F)C(=O)N1CC(n2nc(-c3ccc(C(F)(F)F)cc3)c3ccc(N(C)C)nc32)C1 [Compound 122, 1-(3-(6-(dimethylamino)-3-(4-(trifluoromethyl)phenyl)-1H-pyrazolo[3,4-b]pyridin-1-yl)-azetidin-1-yl)-2-fluoroprop-2-en-1-one]",0.024 µM
12,"C=CC(=O)Nc1cc(-n2nc(-c3ccc(C(F)(F)F)cc3)c3cccnc32)ccc1Cl [Compound 189, N-(2-chloro-5-(3-(4-(trifluoro-methyl)phenyl)-1H-pyrazolo[3,4-b]pyridin-1-yl)phenyl)acrylamide]",0.024 µM
13,"C=CC(=O)N1CC(n2nc(-c3ccc(C(F)(F)F)cc3F)c3cccnc32)C1 [Compound 127, 1-(3-(3-(2-fluoro-4-(trifluoro-methyl)phenyl)-1H-pyrazolo[3,4-b]pyridin-1-yl)azetidin-1-yl)prop-2-en-1-one]",0.008 µM
14,"C=C(F)C(=O)N1CC(n2nc(-c3ccc(C(F)(F)F)cc3)c3ccc[n+]([O-])c32)C1 [Compound 165, 1-(1-(2-fluoroacryloyl)azetidin-3-yl)-3-(4-(trifluoromethyl)phenyl)-1H-pyrazolo[3,4-b]pyridine 7-oxide]",0.04 µM
15,"C=C(F)C(=O)N1CCC(n2nc(-c3ccc(C(F)(F)F)cc3)c3cc(OC)cnc32)C1 (stereo not shown) [Compound 95, 2-fluoro-1-(3-(5-methoxy-3-(4-(trifluoromethyl)phenyl)-1H-pyrazolo[3,4-b]pyridin-1-yl)-pyrrolidin-1-yl)prop-2-en-1-one]",0.03 µM
16,"C=C(F)C(=O)N1CC(c2nc(-c3ccc(C(F)(F)F)cc3)nc3ccccc23)C1 [Compound 256, 2 fluoro-1-(3-(2-(4-(trifluoromethyl)phenyl)quinazolin-4 yl)azetidin-1 yl)prop-2-en-1-one]",0.0007 µM
17,"C=C(F)C(=O)N1CC(n2c(=O)n(-c3ccc(C(F)(F)F)cc3)c3cc(C(F)(F)F)cnc32)C1 [Compound 245, 3-(1-(2-fluoroacryloyl)azetidin-3-yl)-6-(trifluoromethyl)-1-(4-(trifluoromethyl)phenyl)-1,3-dihydro-2H-imidazo[4,5-b]pyridin-2-one]",0.032 µM
18,"C=CC(=O)N1CCC(n2nc(-c3ccc(C(F)(F)F)cc3)c3ncn(C)c(=O)c32)C1 (stereo not shown) [Compound 7, 1-(1-acryloylpyrrolidin-3-yl)-6-methyl-3-(4-(trifluoromethyl)phenyl)-1,6-dihydro-7H-pyrazolo[4,3-d]pyrimidin-7-one]",0.005 µM
19,"CC(=O)N1CCC(n2nc(-c3ccc(C(F)(F)F)cc3)c3ccccc32)C1 (stereo not shown) [Com. EX.3, 1-(3-(3-(4-(trifluoromethyl)phenyl)-1H-indazol-1-yl)pyrrolidin-1-yl)ethan-1-one, reference compound]",> 10 µM
20,"CCOC(=O)N1CC(n2nc(-c3ccc(OC(F)(F)F)cc3)c3cccnc32)C1 [Com. EX.5, ethyl 3-(3-(4-(trifluoromethoxy)phenyl)-1H-pyrazolo[3,4-b]pyridin-1-yl)azetidine-1-carboxylate, reference compound]",> 10 µM
21,"C=CC(=O)N1CCC(n2nc(-c3ccc(C(F)(F)F)cc3)c3cnccc32)C1 (stereo not shown) [Compound 23, 1-(3-(3-(4-(trifluoromethyl)phen-yl)-1H-pyrazolo[4,3-c]pyridin-1-yl)pyrrolidin-1-yl)prop-2-en-1-one]",0.016 µM
22,"C=C(F)C(=O)N1CC(n2c(=O)n(-c3ccc(Oc4ccccc4)cc3)c3cnccc32)C1 [Com. EX.4, 1-(1-(2-fluoroacryloyl)azetidin-3-yl)-3-(4-phenoxyphenyl)-1,3-dihydro-2H-imidazo[4,5-c]pyridin-2-one, reference compound]",> 10 µM
23,"C=CC(=O)N1CCC(n2nc(-c3ccc(C(F)(F)F)cc3)c3ccncc32)C1 (stereo not shown) [Compound 22, 1-(3-(3-(4-(trifluoromethyl)phen-yl)-1H-pyrazolo[3,4-c]pyridin-1-yl)pyrrolidin-1-yl)prop-2-en-1-one]",0.02 µM
24,"C=C(F)C(=O)N1CC(n2nc(Nc3ccc(C(F)(F)F)cc3)c3ccc(C)nc32)C1 [Compound 11, 2 fluoro-1-(3-(6-methyl-3-((4-(trifluoromethyl)phenyl)amino)-1H-pyrazolo[3,4-b]pyridin-1 yl)azetidin-1 yl)prop-2-en-1-one]",0.0007 µM
25,"C=C(F)C(=O)N1CC(n2nc(-c3ccc(C#N)c(C(F)(F)F)c3)c3cccnc32)C1 [Compound 178, 4-(1-(1-(2-fluoroacryloyl)azetidin-3-yl)-1H-pyrazolo[3,4-b]pyridin-3-yl)-2-(trifluoromethyl)benzo-nitrile]",0.034 µM
